Data as given in patent US7709495B2, “Methods and reagents for the treatment of inflammatory disorders” (CombinatoRx, Incorporated, priority 2003, dated 2010).
Read-outs that look alike come from different tables or passages of the source.

What was measured:
TNFα secretion = TNFα secretion assay (ELISA), lipopolysaccharide stimulated white blood cells; format: cell-based; conditions: Homo sapiens, PBMC, read-out: % Inhibition TNFα PBMC LPS
Procedure: The compound dilution matrix was assayed for the suppression of phorbol 12-myristate 13 acetate/ionomycin stimulated IL-1 and TNFα secretion as well as the suppression of lipopolysaccharide-stimulated TNFα secretion from human white blood cells using the ELISA method, as described below.
(§1) A stock solution containing prednisolone (0.36 mg/ml) was prepared in DMSO. A stock solution containing ibudilast (1.84 mg/ml) was prepared in DMSO. Master plates were prepared for dilutions of the stock solutions above.
(§2) The final single agent plates were generated by transferring 1 μL of stock solution from the specific master plate to separate dilution plates containing 99 μL of media (RPMI; Gibco BRL, #11875-085), 10% fetal bovine serum (Gibco BRL, #25140-097), 2% penicillin/streptomycin (Gibco BRL, #15140-122)) using the Packard Mini-Trak liquid handler. The dilution plates were then mixed and a 10 μL aliquot transferred from each dilution plate to the final assay plate (polystyrene 384-well plate (NalgeNunc)), which had been pre-filled with 30 μL/well RPMI media containing 33 ng/mL phorbol 12-myristate 13-acetate (Sigma, P-1585) and 2.475 ng/mL ionomycin (Sigma, I-0634) or alternatively for the LPS stimulated assay RPMI media containing 2 μg/ml lipopolysaccharide (Sigma, L-4130).
The effects of test compound combinations on TNFα secretion were assayed in white blood cells from human buffy coat stimulated with phorbol 12-myistate 13-acetate, or lipopolysaccharide as follows. Human white blood cells from buffy coat were diluted 1:50 in media (RPMI; Gibco BRL, #11875-085), 10% fetal bovine serum (Gibco BRL, #25140-097), 2% penicillin/streptomycin (Gibco BRL, #15140-122)) and 50 μL of the diluted white blood cells were placed in each well of the final assay plate created in the above section. After 16-18 hours of incubation at 37° C. with 5% CO2 in a humidified incubator, the plate was centrifuged and the supernatant transferred to a white opaque polystyrene 384 well plate (NalgeNunc, Maxisorb) coated with an anti-TNFα antibody (PharMingen, #551220). After a two-hour incubation, the plate was washed (Tecan Powerwasher 384) with PBS containing 0.1% Tween 20 and incubated for one additional hour with biotin labeled anti-TNFα antibody (PharMingen, #554511) and HRP coupled to streptavidin (PharMingen, #13047E). The plate was then washed again with 0.1% Tween 20/PBS. An HRP-luminescent substrate was added to each well, and the light intensity of each well was measured using a plate luminometer.
(§3) The percent inhibition (% I) for each well was calculated using the following formula: % I=[(avg. untreated wells−treated well)/(avg. untreated wells)]×100
(§4) The average untreated well value (avg. untreated wells) is the arithmetic mean of 30 wells from the same assay plate treated with vehicle alone.
TNFα secretion was measured by ELISA as described above after stimulation with lipopolysaccharide. The effects of varying concentrations of ibudilast, prednisolone and a combination of ibudilast and prednisolone were compared to control wells.

[1] = test system: white blood cells from human buffy coat; test: alamarBlue assay (toxicity/cell viability), lipopolysaccharide stimulated; format: cell-based; conditions: PBMC, read-out: % Inhibition of Proliferation of PBMC LPS
Procedure: as §1, §2, §3, §4
The toxicity of the test combination were assessed using alamarBlue® assayed in white blood cells from human buffy coat stimulated with LPS or phorbol 12-myistate 13-acetate and Ionomycin, as follows. Human white blood cells from buffy coat were diluted 1:50 in media (RPMI; Gibco BRL, #11875-085), 10% fetal bovine serum (Gibco BRL, #25140-097), 2% penicillin/streptomycin (Gibco BRL, #15140-122)) and 50 μL of the diluted white blood cells was placed in each well of the final assay plate created in the above section. After 16-18 hours of incubation at 37° C. with 5% CO2 in a humidified incubator, 5 μl of alamarBlue® (BioSource Intl. Inc., DAL 1100) was added to all of the wells. After 20-24 hours of incubation in 37° C. in a humidified incubator, fluorescence was then measured using a plate fluorometer.
Cell viability was measured the alamarBlue® asay described above after stimulation with lipopolysaccharide. The effects of varying concentrations of ibudilast, prednisolone and a combination of ibudilast and prednisolone were compared to control wells. These wells were stimulated with lipopolysaccharide, but not receive ibudilast or prednisolone.

C[C@]12C=CC(=O)C=C1CC[C@@H]1[C@@H]2[C@@H](O)C[C@@]2(C)[C@H]1CC[C@]2(O)C(=O)CO [Prednisolone, prednisolone]
inhibition at 0.0078 µM (TNFα secretion; prednisolone 0.0078 μM alone): 0.085%
inhibition at 0.016 µM (TNFα secretion; prednisolone 0.016 μM alone): 17%
inhibition at 0.031 µM (TNFα secretion; prednisolone 0.031 μM alone): 24%
inhibition at 0.062 µM (TNFα secretion; prednisolone 0.062 μM alone): 47%
inhibition at 0.12 µM (TNFα secretion; prednisolone 0.12 μM alone): 57%
inhibition at 0.25 µM (TNFα secretion; prednisolone 0.25 μM alone): 66%
inhibition at 0.5 µM (TNFα secretion; prednisolone 0.5 μM alone): 68%
inhibition at 1 µM (TNFα secretion; prednisolone 1 μM alone): 70%
inhibition at 0.0078 µM ([1]; prednisolone 0.0078 μM alone): -1.7%
inhibition at 0.016 µM ([1]; prednisolone 0.016 μM alone): -1.5%
inhibition at 0.031 µM ([1]; prednisolone 0.031 μM alone): 0.64%
inhibition at 0.062 µM ([1]; prednisolone 0.062 μM alone): -1.2%
inhibition at 0.12 µM ([1]; prednisolone 0.12 μM alone): -1.8%
inhibition at 0.25 µM ([1]; prednisolone 0.25 μM alone): -1.3%
inhibition at 0.5 µM ([1]; prednisolone 0.5 μM alone): -3.3%
inhibition at 1 µM ([1]; prednisolone 1 μM alone): -3.8%

CC(C)C(=O)c1c(C(C)C)nn2ccccc12 [Ibudilast, ibudilast]
inhibition at 0.062 µM (TNFα secretion; ibudilast 0.062 μM alone): 17%
inhibition at 0.12 µM (TNFα secretion; ibudilast 0.12 μM alone): 24%
inhibition at 0.25 µM (TNFα secretion; ibudilast 0.25 μM alone): 41%
inhibition at 0.5 µM (TNFα secretion; ibudilast 0.5 μM alone): 46%
inhibition at 1 µM (TNFα secretion; ibudilast 1 μM alone): 58%
inhibition at 2 µM (TNFα secretion; ibudilast 2 μM alone): 66%
inhibition at 4 µM (TNFα secretion; ibudilast 4 μM alone): 70%
inhibition at 8 µM (TNFα secretion; ibudilast 8 μM alone): 79%
inhibition at 0.062 µM ([1]; ibudilast 0.062 μM alone): -4.6%
inhibition at 0.12 µM ([1]; ibudilast 0.12 μM alone): -1.5%
inhibition at 0.25 µM ([1]; ibudilast 0.25 μM alone): -1.8%
inhibition at 0.5 µM ([1]; ibudilast 0.5 μM alone): -3.8%
inhibition at 1 µM ([1]; ibudilast 1 μM alone): -2.9%
inhibition at 2 µM ([1]; ibudilast 2 μM alone): 2.6%
inhibition at 4 µM ([1]; ibudilast 4 μM alone): -2.4%
inhibition at 8 µM ([1]; ibudilast 8 μM alone): 0.069%
